The results in this text go back to patent US20210163976A1, “GENETICALLY ALTERED PLANTS EXPRESSING HETEROLOGOUS RECEPTORS THAT RECOGNIZE LIPO-CHITOOLIGOSACCHARIDES” (Aarhus Universitet, priority 2018, published 2021).

In assay [1] the target is T1, Medicago NFP ectodomain (NFP-ECD, WT) (Medicago truncatula, UniProt Q0GXS4).
T1 construct: The Medicago truncatula NFP ectodomain (residues 28-246) was codon-optimized; AcMNPV gp67 signal peptide (replaces native signal peptide 1-27) (N); made in house; host or cells: Sf9 (Spodoptera frugiperda), baculovirus, secreted into medium
T1 sequence (Q0GXS4 28-246): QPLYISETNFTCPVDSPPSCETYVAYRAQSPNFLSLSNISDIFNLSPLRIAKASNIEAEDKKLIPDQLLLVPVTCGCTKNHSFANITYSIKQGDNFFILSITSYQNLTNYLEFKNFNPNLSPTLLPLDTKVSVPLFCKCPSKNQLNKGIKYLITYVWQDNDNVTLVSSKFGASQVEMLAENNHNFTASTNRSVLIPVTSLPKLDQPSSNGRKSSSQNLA
In words: Biolayer interferometry (BLI) binding of NFP-ECD to immobilized biotinylated ligands. The settings on record: for binding to NFP of mutated LCOs: FIG. 3B, Example 4; for reduction of binding to NFP-ECD compared to wild type S. meliloti LCO-IV: BLI, FIGS. 15D-15E. As to the method: (§1) Expression and purification of Medicago NFP ectodomain: The Medicago truncatula NFP ectodomain (residues 28-246) was codon-optimized for insect cell expression (Genscript, Piscataway, USA) and cloned into the pOET4 baculovirus transfer vector (Oxford Expression Technologies). The native NFP signal peptide (residues 1-27, predicted by SignalP 4.1) was replaced with the AcMNPV gp67 signal peptide to facilitate secretion and a hexa-histidine tag was added to the C-terminus. Point mutants of NFP were engineered using site-directed mutagenesis. Recombinant baculoviruses were produced in Sf9 cells (Spodoptera frugiperda) using the FlashBac Gold kit (Oxford Expression technologies) according to the manufacturer's instructions with Lipofectin (ThermoFisher Scientific) as a transfection reagent. Protein expression was performed as follows. Suspension-cultured Sf9 cells were maintained with shaking at 299 K in serum-free MAX-XP (BD-Biosciences, discontinued) or HyClone SFX (GE Healthcare) medium supplemented with 1% Pen-Strep (10000 U/ml, Life technologies) and 1% CD lipid concentrate (Gibco). Protein expression was induced by adding recombinant passage 3 virus once the Sf9 cells reached a cell density of 1.0*10^7^6 cells/ml. After 5-7 days of expression, medium supernatant containing NFP ectodomains was harvested by centrifugation. This was followed by an overnight dialysis step against 50 mM Tris-HCl pH 8, 200 mM NaCl at 277 K. The NFP ectodomain was enriched by two subsequent steps of Ni-IMAC purification (HisTrap excel/HisTrap HP, both GE Healthcare). For crystallography experiments, N-glycans were removed using the endoglycosidase PNGase F (1:15 (w/w), room temperature, overnight). As a final purification step, NFP ectodomain was purified by SEC on a Superdex 200 10/300 or HiLoad Superdex 200 16/600 (both GE Healthcare) in phosphate buffered saline at pH 7.2 supplemented to a total of 500 mM NaCl (for binding assays) or 50 mM Tris-HCl, 200 mM NaCl (for crystallography). NFP ectodomain elutes as a single, homogeneous peak corresponding to a monomer. Point mutated versions of NFP were expressed and purified following the same protocol.
(§2) Biolayer interferometry (BLI): Binding of NFP and mutated versions of NFP to ligands was measured on an Octet RED 96 system (Pall ForteBio). The ligands used were LCO-IV (from S. meliloti), LCO-V (from S. meliloti), LCO-V (from M. loti), and C06 (from M. loti). S. meliloti LCO consists of a tetrameric/pentameric N-acetylglucosamine backbone that is 0-sulfated on the reducing terminal residue, 0-acetylated on the non-reducing terminal residue, and mono-N-acylated by unsaturated C16 acyl groups. M. loti LCO is a pentameric N-acetylglucosamine with a cis-vaccenic acid and a carbamoyl group at the non-reducing terminal residue together with a 2,4-O-acetylfucose at the reducing terminal residue. Biotinylated ligand conjugates were immobilized on streptavidin biosensors (kinetic quality, Pall ForteBio) at a concentration of 125-250 nM for 5 minutes. The binding assays using the S. meliloti ligands (LCO-IV and LCO-V) were replicated seven times, while the binding assays using the M loti ligands (LCO-V and C06) were replicated six times. Data analysis was performed in GraphPad Prism 6 software (GraphPad Software, Inc.). Equilibrium dissociation constants derived from the steady-state were determined by applying a non-linear regression (one site, specific binding) to the response at equilibrium plotted against the protein concentration. Kinetic parameters were determined by non-linear regression (association followed by dissociation) on the subtracted data.
(§3) Mutated lipochitooligosaccharide (LCO) ligands: S. meliloti LCO consists of a tetrameric/pentameric N-acetylglucosamine backbone that is O-sulfated on the reducing terminal residue, O-acetylated on the non-reducing terminal residue, and mono-N-acylated by unsaturated C16 acyl groups. […]

The target of assay [2] is T2, Medicago truncatula NFP ectodomain (NFP-ECD, residues 28-246), wild type, SEQ ID NO: 1 (Medicago truncatula, UniProt Q0GXS4).
T2 construct: The Medicago truncatula NFP ectodomain (residues 28-246); AcMNPV gp67 signal peptide (replaces native signal peptide 1-27) (N); hexa-histidine tag (C); made in house; host or cells: Sf9 cells (Spodoptera frugiperda), baculovirus
Description: Biolayer interferometry (BLI) binding of NFP / NFP-ECD to immobilized LCO and CO ligands. Conditions: for Binding of mutated LCOs to NFP (in words): ligand binding tests, FIG. 3B. As to the method:
as §1, §2, §3
Background: BLI is a label-free optical method that tracks binding on a fibre tip over time.

Each structure is given as a SMILES string.

Regarding `CCCCCC/C=C\CCCCCCCCCC(=O)N[C@H]1[C@H](O[C@H]2[C@H](O)[C@@H](NC(C)=O)[C@H](O[C@H]3[C@H](O)[C@@H](NC(C)=O)[C@H](O[C@H]4[C@H](O)[C@@H](NC(C)=O)C(O)O[C@@H]4COS(=O)(=O)O)O[C@@H]3CO)O[C@@H]2CO)O[C@H](COC(C)=O)[C@@H](O)[C@@H]1O` (stereo partly shown) [nodFE-LCO-IV], in assay [1], the “binding to NFP of mutated LCOs” value is given as “reduced NFP binding”. In assay [1] (further BLI assays, FIGS. 15B-15E), the “NFP-ECD binding (BLI)” value is recorded as “no significant binding”. Also, the “Binding to NFP-ECD (in words)” value in assay [2] (further BLI assays, FIGS. 15B-15E, analyte 1.56-100 μM) was “no significant binding”. For the same compound, the “Binding of mutated LCOs to NFP (in words)” value (“Binding of mutated LCOs” for short) in assay [2] is given as “reduced NFP binding”.

Take `CCCCCC/C=C\CCCCC/C=C/C(=O)N[C@H]1[C@H](O[C@H]2[C@H](O)[C@@H](NC(C)=O)[C@H](O[C@H]3[C@H](O)[C@@H](NC(C)=O)[C@H](O[C@H]4[C@H](O)[C@@H](NC(C)=O)C(O)O[C@@H]4CO)O[C@@H]3CO)O[C@@H]2CO)O[C@H](COC(C)=O)[C@@H](O)[C@@H]1O` (stereo partly shown) [nodH-LCO-IV]: in assay [1], the “reduction of binding to NFP-ECD compared to wild type S. meliloti LCO-IV” value is “more than 21 fold” and the “binding to NFP of mutated LCOs” value is “Dramatically reduced binding”. Also, the “Binding of mutated LCOs” value in assay [2] is “Dramatically reduced binding”.

`CCCCCC/C=C\CCCCC/C=C/C(=O)N[C@H]1[C@H](O[C@H]2[C@H](O)[C@@H](NC(C)=O)[C@H](O[C@H]3[C@H](O)[C@@H](NC(C)=O)[C@H](O[C@H]4[C@H](O)[C@@H](NC(C)=O)C(O)O[C@@H]4COS(=O)(=O)O)O[C@@H]3CO)O[C@@H]2CO)O[C@H](CO)[C@@H](O)[C@@H]1O` (stereo partly shown) [nodL-LCO-IV]: in assay [1], the “reduction of binding to NFP-ECD compared to wild type S. meliloti LCO-IV” value is “more than 10 fold” and the “binding to NFP of mutated LCOs” value was “Dramatically reduced binding”. Further, the “Binding of mutated LCOs” value in assay [2] is on record as “Dramatically reduced binding”.
